Some test systems named below: U-251; UACC-257; M14; ACHN; NCI-H23; NCI-H226; MDA-MB-231; NCI-H460; NCI/ADR-RES; SF-539; Malme-3M; HCC 2998; SK-OV-3; A549; SF-268; HCT-15; TK-10; SW-620; SK-MEL-2; OVCAR-8.
Holding throughout (test): NCI tumour cell line growth inhibition, 48 h

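Step 1: Grow cells in 96-well plates. Step 2: Expose to compound for 48 hours at 5 concentrations. Step 3: Interpolate endpoints linearly; if unreached, use highest concentration. GI50 marks 50% less growth.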 Active and inactive are the calls of the source. Cut-off read from the data, not from the text of the source: active = GI50 up to about 1.1 µM and inactive = higher.

Take `CCCCCc1cccc(=O)o1`: the GI50 in the experiment with U-251, with UACC-257, with M14, in the experiment with ACHN, in the experiment with NCI-H23 and in the experiment with NCI-H226 was > 100 µM (inactive) each time. Further, the GI50 in the experiment with MDA-MB-231, in the experiment on NCI-H460, in the experiment on NCI/ADR-RES, with SF-539, with Malme-3M and in the experiment on HCC 2998 was > 100 µM (inactive) throughout. Moreover, the GI50 in the experiment with SK-OV-3 is > 100 µM (inactive); with A549, > 100 µM (inactive); in the experiment with SF-268, > 100 µM (inactive); with HCT-15, greater than 100 µM; in the experiment on TK-10, > 100 µM (inactive); in the experiment with SW-620, > 100 µM (inactive). The GI50 with SK-MEL-2 and in the experiment with OVCAR-8 was > 100 µM (inactive) throughout.
Turning to `COC(CN(C(C)=O)C1CCC2(SCCS2)c2[nH]c3ccccc3c21)OC` (stereo not given), the GI50 in the experiment on U-251 was > 100 µM (inactive); in the experiment with UACC-257, 0.773 µM (active); with M14 it was > 100 µM (inactive); with ACHN, > 100 µM (inactive); in the experiment with NCI-H23, > 100 µM (inactive); in the experiment on NCI-H226, > 100 µM (inactive). Besides, the GI50 in the experiment on MDA-MB-231, with NCI-H460, with NCI/ADR-RES, in the experiment with SF-539, in the experiment on Malme-3M and in the experiment on HCC 2998 was > 100 µM (inactive) in each case. The GI50 in the experiment on A549 was > 100 µM (inactive); with SF-268, > 100 µM (inactive); in the experiment with HCT-15 it was greater than 100 µM; with TK-10, > 100 µM (inactive); in the experiment with SW-620, > 100 µM (inactive); with SK-MEL-2, > 100 µM (inactive). Besides, the GI50 in the experiment with OVCAR-8 was > 100 µM (inactive).
In the case of `Cc1ccc2c(O)cc(-c3cc(C)sc3C)nc2n1`, the GI50 in the experiment on U-251 is 3.69 µM (inactive); with UACC-257 it was > 37.7 µM (inactive); with M14 it was 3.2 µM (inactive); in the experiment with ACHN, 8.13 µM (inactive); in the experiment on NCI-H23 it was 2.25 µM (inactive); with NCI-H226 it was 2.38 µM (inactive). The GI50 with MDA-MB-231 is 10.4 µM (inactive); in the experiment on NCI-H460 it was 4.21 µM (inactive); in the experiment on NCI/ADR-RES, 1.62 µM (inactive); in the experiment on SF-539, 2.3 µM (inactive); in the experiment with Malme-3M it was 3.56 µM (inactive); in the experiment with HCC 2998, 4.05 µM (inactive). The GI50 is 3.77 µM (inactive) with SK-OV-3; 3.94 µM (inactive) in the experiment on A549; 6.04 µM (inactive) with SF-268; 1.46 µM with HCT-15; 25.1 µM (inactive) with TK-10; 1.67 µM (inactive) with SW-620. For the same molecule, the GI50 with OVCAR-8 is 3.91 µM (inactive).
Turning to `COc1cc(CCCl)c(CC2=NCCc3cc(OC)c(OC)cc32)cc1OC`, the GI50 is > 100 µM (inactive) with U-251; > 100 µM (inactive) in the experiment with UACC-257; 50.1 µM (inactive) in the experiment with M14; > 100 µM (inactive) with ACHN; > 100 µM (inactive) in the experiment on NCI-H23; > 100 µM (inactive) in the experiment on NCI-H226. Further, the GI50 is 55.7 µM (inactive) in the experiment with MDA-MB-231; > 100 µM (inactive) in the experiment with NCI-H460; > 100 µM (inactive) with NCI/ADR-RES; 4.61 µM (inactive) with SF-539; 61 µM (inactive) with HCC 2998; > 100 µM (inactive) in the experiment on SK-OV-3. Besides, the GI50 in the experiment with A549 is > 100 µM (inactive); with SF-268, 97.3 µM (inactive); in the experiment with TK-10, 30.2 µM (inactive); in the experiment on SW-620 it was 85.5 µM (inactive); with SK-MEL-2 it was > 100 µM (inactive); with OVCAR-8, > 100 µM (inactive).
As to `O=C1Cc2c(-c3ccccc3)cc(-c3cccc(Cl)c3)nc2-c2ccccc2N1`, the GI50 in the experiment on U-251 is 1.75 µM (inactive); in the experiment with UACC-257, 6.32 µM (inactive); in the experiment with M14 it was 8.09 µM (inactive); in the experiment with NCI-H23, 5.24 µM (inactive); in the experiment with NCI-H226 it was 4.63 µM (inactive); in the experiment on MDA-MB-231 it was 1.15 µM (inactive). Also, the GI50 in the experiment on NCI-H460 is 1.2 µM (inactive); in the experiment with NCI/ADR-RES, 2.05 µM (inactive); in the experiment on SF-539, 6.34 µM (inactive); with Malme-3M, 3.82 µM (inactive); with HCC 2998, 2.09 µM (inactive); in the experiment on SK-OV-3, 1.86 µM (inactive). Moreover, the GI50 was 1.82 µM (inactive) in the experiment on A549; 2.73 µM (inactive) in the experiment on SF-268; 3.42 µM in the experiment on HCT-15; 1.49 µM (inactive) with TK-10; 3.91 µM (inactive) in the experiment with SW-620; 8 µM (inactive) in the experiment with SK-MEL-2. In the experiment on OVCAR-8, the GI50 is 1.61 µM (inactive).
As for `CCOC(=O)c1ccc(N[C@@H]2c3cc4c(cc3C(c3cc(OC)c(O)c(OC)c3)[C@H]3C(=O)OCC32)OCO4)cc1` (stereo not given in full), the GI50 in the experiment with U-251 is 0.249 µM (active); in the experiment with UACC-257, 3.57 µM (inactive); in the experiment with M14, 0.679 µM (active); in the experiment with ACHN, 0.131 µM (active); in the experiment with NCI-H23 it was 0.339 µM (active); in the experiment with NCI-H226, 0.284 µM (active). Besides, the GI50 is 1.67 µM (inactive) in the experiment with MDA-MB-231; 0.0255 µM (active) in the experiment on NCI-H460; 1.42 µM (inactive) in the experiment on NCI/ADR-RES; 0.421 µM (active) in the experiment with SF-539; 0.568 µM (active) in the experiment with Malme-3M; 1.22 µM (inactive) in the experiment with HCC 2998. Also, the GI50 with SK-OV-3 is 0.955 µM (active); in the experiment with A549, 0.0413 µM (active); with SF-268, 0.771 µM (active); in the experiment on HCT-15, 0.379 µM; in the experiment on SW-620 it was 0.475 µM (active); in the experiment on SK-MEL-2, 2.63 µM (inactive). In addition, the GI50 in the experiment on OVCAR-8 was 0.708 µM (active).
For `COC(=O)c1ccc(NCC2=C(Br)C(=O)C=CC2=O)cc1Cl`, the GI50 is 22.8 µM (inactive) in the experiment on U-251; 23.8 µM (inactive) in the experiment on UACC-257; 18.2 µM (inactive) in the experiment on M14; 17 µM (inactive) in the experiment on ACHN; 21 µM (inactive) with NCI-H23; 74.8 µM (inactive) with NCI-H226. Besides, the GI50 was 18.3 µM (inactive) in the experiment on MDA-MB-231; 17.2 µM (inactive) in the experiment with NCI-H460; 23.2 µM (inactive) with NCI/ADR-RES; 16.8 µM (inactive) with SF-539; 15.2 µM (inactive) in the experiment on Malme-3M; 42.6 µM (inactive) in the experiment on HCC 2998. Also, the GI50 in the experiment with SK-OV-3 was > 100 µM (inactive); in the experiment on A549, > 100 µM (inactive); in the experiment on SF-268, 16.8 µM (inactive); in the experiment with HCT-15 it was 15.8 µM; in the experiment with TK-10, 16.4 µM (inactive); in the experiment on SW-620, 16 µM (inactive). Besides, the GI50 in the experiment on SK-MEL-2 is 20.2 µM (inactive); with OVCAR-8 it was 19.3 µM (inactive).
As for `CCOC(=O)C[C@@H]1C2(C=C[C@@]13CO3)OCC(C)(C)CO2`, the GI50 in the experiment on U-251, in the experiment with UACC-257, in the experiment on M14, in the experiment with NCI-H23, in the experiment on NCI-H226 and in the experiment with MDA-MB-231 was > 100 µM (inactive) throughout. The GI50 in the experiment with NCI-H460, with NCI/ADR-RES, with SF-539, with Malme-3M, in the experiment with HCC 2998 and in the experiment on SK-OV-3 was > 100 µM (inactive) each time. For the same molecule, the GI50 was > 100 µM (inactive) in the experiment with A549; > 100 µM (inactive) in the experiment with SF-268; greater than 100 µM with HCT-15; > 100 µM (inactive) in the experiment with TK-10; > 100 µM (inactive) with SW-620; > 100 µM (inactive) in the experiment with SK-MEL-2. Also, the GI50 in the experiment with OVCAR-8 was > 100 µM (inactive).
Turning to `O=c1cnn(C2OC(CO)C(O)C2O)c(=S)[nH]1` (stereo not given), the GI50 in the experiment with U-251 is 3.03 µM (inactive); in the experiment on UACC-257, > 100 µM (inactive); in the experiment with M14, > 100 µM (inactive); in the experiment on NCI-H23, > 94 µM (inactive); in the experiment on NCI-H226 it was > 100 µM (inactive); in the experiment on MDA-MB-231, > 100 µM (inactive). Also, the GI50 with NCI-H460 is 0.316 µM (active); in the experiment with NCI/ADR-RES, > 79.3 µM (inactive); with SF-539, 66.5 µM (inactive); in the experiment with Malme-3M it was > 77.8 µM (inactive); with HCC 2998, > 87.1 µM (inactive); in the experiment with SK-OV-3, > 100 µM (inactive). Besides, the GI50 with A549 is 2.15 µM (inactive); with SF-268 it was 11.1 µM (inactive); in the experiment with HCT-15, 2.09 µM; with TK-10 it was > 100 µM (inactive); in the experiment on SW-620 it was 5.21 µM (inactive); in the experiment with SK-MEL-2 it was 20.4 µM (inactive). Moreover, the GI50 in the experiment with OVCAR-8 is 10.6 µM (inactive).
As for `COC(=O)C1(c2ccc(N(C)C)cc2OC)CCCN(C(=O)Oc2ccccc2[N+](=O)[O-])CCc2c1[nH]c1ccccc21` (stereo not given), the GI50 in the experiment with U-251, in the experiment on UACC-257, in the experiment with M14, in the experiment with NCI-H23, in the experiment on NCI-H226 and with MDA-MB-231 was > 100 µM (inactive) in each case. Further, the GI50 with NCI-H460, with NCI/ADR-RES, in the experiment on SF-539, with Malme-3M, in the experiment with HCC 2998 and in the experiment on SK-OV-3 was > 100 µM (inactive) each time. In addition, the GI50 in the experiment on A549, in the experiment with SF-268, with TK-10, with SW-620, in the experiment on SK-MEL-2 and in the experiment with OVCAR-8 was > 100 µM (inactive) each time.
